Paper PMC6541974, “Rho-Kinase II Inhibitory Potential of Eurycoma longifolia New Isolate for the Management of Erectile Dysfunction” (Evidence-based Complementary and Alternative Medicine : eCAM, 2019)
Like-named read-outs stand apart in the source and are kept apart here. Each block holds one compound with its values, some of them ahead of it.

Experiments:
[1] = target: T1, ROCK-II (Homo sapiens, UniProt O75116); assay: ROCK-II inhibition assay (ADP-Glo Kinase Assay, ROCK2 Kinase assay); format: biochemical; conditions: for inhibition at 0.01 µg/mL / inhibition at 0.1 µg/mL / inhibition at 1 µg/mL / inhibition at 10 µg/mL: read-out: % of inhibition of ROCK-II ± SD
T1 construct: purchased Promega, USA
T1 sequence (O75116 whole entry): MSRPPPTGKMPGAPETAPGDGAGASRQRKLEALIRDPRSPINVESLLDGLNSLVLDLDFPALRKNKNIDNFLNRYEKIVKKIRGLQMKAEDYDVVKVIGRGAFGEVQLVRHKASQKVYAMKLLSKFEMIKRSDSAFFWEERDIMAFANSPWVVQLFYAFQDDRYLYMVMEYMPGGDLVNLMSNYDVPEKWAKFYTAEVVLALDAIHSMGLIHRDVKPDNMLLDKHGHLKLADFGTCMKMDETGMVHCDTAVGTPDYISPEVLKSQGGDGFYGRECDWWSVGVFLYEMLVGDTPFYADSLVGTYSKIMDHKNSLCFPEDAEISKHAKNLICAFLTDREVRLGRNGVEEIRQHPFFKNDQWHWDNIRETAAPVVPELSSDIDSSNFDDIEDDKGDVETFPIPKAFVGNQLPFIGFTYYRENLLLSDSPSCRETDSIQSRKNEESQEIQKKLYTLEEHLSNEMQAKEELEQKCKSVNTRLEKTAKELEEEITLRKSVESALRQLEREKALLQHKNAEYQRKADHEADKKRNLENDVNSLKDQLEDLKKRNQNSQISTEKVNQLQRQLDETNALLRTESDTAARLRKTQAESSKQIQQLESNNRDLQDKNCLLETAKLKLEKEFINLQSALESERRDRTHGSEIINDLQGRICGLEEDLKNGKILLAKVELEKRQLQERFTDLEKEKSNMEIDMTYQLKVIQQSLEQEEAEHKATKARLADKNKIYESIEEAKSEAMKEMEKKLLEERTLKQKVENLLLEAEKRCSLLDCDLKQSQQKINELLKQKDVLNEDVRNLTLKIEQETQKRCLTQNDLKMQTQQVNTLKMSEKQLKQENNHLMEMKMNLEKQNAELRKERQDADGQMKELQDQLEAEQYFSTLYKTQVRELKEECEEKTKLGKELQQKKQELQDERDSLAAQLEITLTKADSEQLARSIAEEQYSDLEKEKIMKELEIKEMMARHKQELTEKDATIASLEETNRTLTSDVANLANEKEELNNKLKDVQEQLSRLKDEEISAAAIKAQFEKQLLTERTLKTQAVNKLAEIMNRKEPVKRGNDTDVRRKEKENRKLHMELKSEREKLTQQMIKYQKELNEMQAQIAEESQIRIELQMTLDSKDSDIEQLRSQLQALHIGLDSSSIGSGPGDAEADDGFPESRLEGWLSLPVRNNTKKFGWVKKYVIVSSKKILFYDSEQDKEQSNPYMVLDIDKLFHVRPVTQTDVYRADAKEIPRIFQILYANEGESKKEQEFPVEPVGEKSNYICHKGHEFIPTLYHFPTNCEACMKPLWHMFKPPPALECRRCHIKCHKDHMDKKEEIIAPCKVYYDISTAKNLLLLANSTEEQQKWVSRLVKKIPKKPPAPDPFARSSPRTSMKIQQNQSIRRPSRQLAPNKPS
Experimental: A vehicle control for 5% DMSO was used in the assay to check the interference. Standard curve for ROCK-II enzyme was done (Figure 2). Serial dilution and IC50 of the AE was performed in triplicate.
The assay was repeated as mentioned in Section 2.3 on the AE fractions and the isolates T1-T8.
The assay performance measure was used to validate the screening assay quality through calculation of Z-factor according to methodology of Zhang et al., 1999 [18].
Enzyme inhibition by tested samples is expressed as mean ± SD and analyzed using Prism program version 6 (GraphPad Software, Inc., San Diego CA); comparisons among tested samples were carried out using one-way analysis of variance (ANOVA) followed by Bonferroni's multiple comparisons test. P ‹ 0.05 was considered significant.

[2] = system: testosterone production; design: method as in PMID 26978330; conditions: cited from earlier work
[3] = system: aromatase enzyme; design: method as in PMID 23810842; conditions: Leydig cells, transformation of testosterone to estrogen; cited from earlier work
[4] = system: phosphodiesterase; design: method as in PMID 23810842; conditions: high concentration; cited from earlier work
[5] = mean ± SD, triplicates, read-out: IC50 (converted)

Compound: CC1=CC(=O)[C@@H](O)[C@@]2(C)[C@H]1CC(=O)[C@@]1(C)[C@H]3C(=O)O[C@H]([C@@H]3C)[C@H](O)[C@@H]12 [Compound T4, eurycomalactone]
- IC50 [1]: 2.28 µM
- inhibition at 0.01 µg/mL [1]: 6.13 ± 0.44%
- inhibition at 0.1 µg/mL [1]: 25.7 ± 2.47%
- inhibition at 1 µg/mL [1]: 54 ± 0.42%
- inhibition at 10 µg/mL [1]: 76.2 ± 3.53%

- inhibition at 0.01 µg/mL ([1]; concentration 0.01 µg/ml): 10.6 ± 2.94%
- inhibition at 0.1 µg/mL ([1]; concentration 0.1 µg/ml): 33.2 ± 1.55%
- inhibition at 1 µg/mL ([1]; concentration 1 µg/ml): 68.5 ± 0.35%
- inhibition at 10 µg/mL ([1]; concentration 10 µg/ml): 82.1 ± 0.63%
- IC50 [1, 5]: 2.01 µM
Compound: COc1cc(/C=C/C=O)ccc1O [Compound T2, trans-coniferyl aldehyde]

Compound: CC[C@H](/C=C/[C@@H](C)[C@H]1CC[C@H]2[C@@H]3CC=C4C[C@@H](O)CC[C@]4(C)[C@H]3CC[C@]12C)C(C)C [Compound T1, stigmasterol]
- IC50 [1, 5]: 14.9 µM
- inhibition at 0.01 µg/mL [1]: 2.78 ± 1.84%
- inhibition at 0.1 µg/mL [1]: 13.3 ± 2.26%
- inhibition at 1 µg/mL [1]: 27.4 ± 2.47%
- inhibition at 10 µg/mL [1]: 60.3 ± 0.14%

Compound: eurycomanone [Compound T6]
- % of inhibition of ROCK-II ± SD ([1]; concentration 0.01 µg/ml): 5.4 ± 3.74%
- % of inhibition of ROCK-II ± SD ([1]; concentration 0.1 µg/ml): 26.4 ± 2.61∗ %
- % of inhibition of ROCK-II ± SD ([1]; concentration 1 µg/ml): 57.1 ± 0.56∗ %
- % of inhibition of ROCK-II ± SD ([1]; concentration 10 µg/ml): 78.3 ± 0.38∗ %
- IC50 ([1]; mean ± SD, triplicates): 677 ± 51.1∗ ng/ml
- testosterone production [2]: induce testosterone production
- aromatase enzyme inhibition [3]: aromatase enzyme inhibition
- effect on phosphodiesterase [4]: inhibitory effect

- inhibition at 0.01 µg/mL ([1]; concentration 0.01 µg/ml): 10.1 ± 3.34%
- inhibition at 0.1 µg/mL ([1]; concentration 0.1 µg/ml): 25 ± 2.47%
- inhibition at 1 µg/mL ([1]; concentration 1 µg/ml): 66.15 ± 0.07%
- inhibition at 10 µg/mL ([1]; concentration 10 µg/ml): 77.1 ± 0.11%
- IC50 [1, 5]: 2.73 µM
Compound: COc1cc2ccc(=O)oc2cc1O [Compound T3, scopoletin]

- % of inhibition of ROCK-II ± SD ([1]; concentration 0.01 µg/ml): 22.5 ± 1.27∗ %
- % of inhibition of ROCK-II ± SD ([1]; concentration 0.1 µg/ml): 42.15 ± 2.19∗ %
- % of inhibition of ROCK-II ± SD ([1]; concentration 1 µg/ml): 68.15 ± 2.75∗ %
- % of inhibition of ROCK-II ± SD ([1]; concentration 10 µg/ml): 89.9± 0.42∗ %
- inhibition for ROCK-II activity ([1]; concentrations 1-10 μg/ml): 68.15-89.9%
Compound: C[C@@H](N)[C@H]1CC[C@H](C(=O)Nc2ccncc2)CC1.Cl.Cl (relative stereo) [Compound Y-27632, (+)-(R)-trans-4-(1-aminoethyl)-N-(4-pyridyl)cyclohexanecarboxamide dihydrochloride, reference compound]

Compound: C=C1C(O)C2(O)OCC34C(CC5C(C)=CC(OC6OC(CO)C(O)C(O)C6O)C(O)C5(C)C23)OC(=O)C(O)C14O [Compound T8, eurycomanol-2-O-β-D-glycopyranoside]
- IC50 [1]: 2.52 µM
- inhibition at 0.01 µg/mL [1]: 4.06 ± 3.8%
- inhibition at 0.1 µg/mL [1]: 17 ± 0.77%
- inhibition at 1 µg/mL [1]: 46.5 ± 1.62%
- inhibition at 10 µg/mL [1]: 71.4 ± 2.54%
